The source of these data is patent US20100120738A1, “ANTI-APOPTOTIC BENZODIAZEPINE RECEPTOR LIGAND INHIBITORS” (priority 2006, published 2010).

Read-outs that look alike come from different tables or passages of the source. Where only a bound is given, the exact number is not on record here.

Series [1] has as its system Bovine capillary endothelial cells. The series can be described thus: Protection against radiation-induced apoptosis (DAPI apoptotic index). It counts as cell-based. The following applies: for concentration providing protection from the apoptotic effects of ionizing radiation: DAPI staining, apoptotic index, 6 h. The protocol:
Bovine capillary endothelial cells were cultured on eight chamber Labtek slides and exposed to ionizing radiation (20 Gy) for 6 hours. After this time, cells were either left untreated or treated with compound at the concentration indicated on the x-axis. Cells were then fixed in methanol and stained with 5 μg/ml DAPI and DNA was visualized using a Nikon epifluorescence microscope, and apoptosis scored and expressed as an apoptotic index according to the percentage of apoptotic cells in a field of 100 cells. Open bars indicate apoptotic index following irradiation. Hatched bars indicate apoptotic index for control cells not receiving a dose of ionizing radiation.
(§1) Bovine capillary endothelial cells were cultured on eight-chamber Labtek slides and exposed to ionizing radiation (20 Gy), which was calibrated using an X-ray exposure meter. […] In control experiments, cells either received no ionizing radiation (sham) or no compound. After 6 h incubation, the cells were fixed in methanol and stained with 5 μg/ml 4,6-diamidino-2-phenylindole (DAPI). DNA was visualized using a Nikon epifluorescence microscope, and apoptosis was scored and expressed as an apoptotic index (% apoptotic cells in a field of 100).

A short description of series [2]: Stability in USP simulated gastric fluid (SGF). As to conditions: 37° C., pH approx. 1.2. Format: in vitro ADME. The source says: Aliquots of SGF were withdrawn and intact compound quantitated by HPLC-UV.
In a further series the test system is PC12 cells. Briefly: Protection against STS-induced apoptosis in PC12 cells (XTT viability assay). Format: cell-based, rat. As to the method:
Rat pheochromocytoma (PC12) cells were cultured in collagen-coated 96-well plates according to directions provided by the American Type Culture Collection. Staurosporine was added at various concentrations sufficient to induce apoptosis. Test compounds were added together with the staurosporine. Cells were incubated overnight at 37° C., 5% CO2. After 18-24 hours, test media was removed and cell viability was determined using the XTT viability assay described by Baker et al., J. Pharmacol. Exp, Therapeutics 284, 215-221, 1998, the contents of which are incorporated herein by reference.
In general terms: Tetrazolium dyes change colour on reduction, which living cells bring about.

A short description of series [3]: Superoxide dismutase (SOD) activity. Format: biochemical.
Series [4] can be described thus: Lipophilicity by octanol partitioning. Format: physicochemical. The following applies: for Log10 P value / P value (octanol partitioning coefficient): octanol-water. The protocol:
To indicate the likelihood that the compounds will cross lipid membranes and be absorbed once administered by oral means, their lipophilicities were determined by octanol partitioning. […] Quantitation was performed by HPLC-UV.

Series [5] relates to cultured mesencephalic tissue slices. The series can be described thus: MPP+ induced neurodegeneration in cultured mesencephalic tissue slices (LDH release). Format: cell-based, rat. As to conditions: 20 μM MPP+; for prevention of cytotoxicity induced by MPP+: compound 100 nM, 1.0 μM, 10 μM, FIG. 17. The protocol:
FIG. 17 is a graphical representation showing the effects of exemplary low molecular weight metalloporphyrin compounds of the present invention on MPP+ induced neurodegeneration in cultured mesencephalic tissue slices. Mesencephalic tissue slices were prepared from PND 3-5 rats and maintained in culture for 2 weeks. The tissue slices were incubated with a porphyrin compound as indicated on the x-axis for 6 hours before adding 20 μM MPP+ to induce neuronal apoptosis. Concentrations of each porphyrin compound tested were 100 nM ? 1.0 μM ? and 10 μM ? Following a further incubation for 48 hours, the slices were collected and the level of lactate dehydrogenase (LDH) released into the medium was determined.
(In general: LDH in the medium is a marker of cell lysis.)

Series [6] is described as follows: Oral bioavailability in vivo, plasma levels by LC-MS/MS after intragastric gavage. Also noted: species or system rat. The following applies: intragastric gavage, 4 mg/kg EUK-418 or 2 mg/kg EUK-423. As to the method:
FIG. 18 is a graphical representation showing the bioavailability in vivo for the compounds {[{(Porphine-5,15-diyl)bis[cyclopropyl-diyl]}](2-)-N^21,N^22,N^23,N^24} manganese(III) acetate (EUK-418) and {[{(Porphine-5,15-diyl)bis[benzyl-diyl]}](2-)-N^21,N^22,N^23,N^24} manganese(III) acetate (EUK-423) in rats. Fasted and fed Sprague-Dawley rats were dosed by intragastric gavage with either 4 mg/kg EUK-418 or 2 mg/kg EUK-423. At the times indicated on the x-axis, plasma was obtained from the animals and the concentrations of compounds determined by LC-MS/MS.
Fasted and fed Sprague-Dawley rats were dosed by intragastric gavage with either 4 mg/kg EUK-418 or 2 mg/kg EUK-423. At time points up to 7 hr post-administration, animals were sacrificed, their blood collected over heparin, plasma samples prepared by centrifugation, and plasma levels of the compounds were determined by LC-MS/MS.

In series [7] the test system is Bovine capillary endothelial cells. The series can be described thus: Cytotoxicity/necrosis of non-irradiated cells (LDH release, field number). It counts as cell-based. The protocol: as §1, with “100). […] Field number was also calculated for all other compounds tested as a control (results not shown).” for “100).”
To determine cytotoxicity of the compounds under these conditions, duplicate samples of the cells receiving a dose of compound at each concentration tested in the absence of a dose of ionizing radiation were assayed for release of LDH into the culture medium.

For series [8], the target named is mitochondrial benzodiazepine receptor (mBzR) (Homo sapiens, UniProt P30536). The series can be described thus: Inhibition of tritiated PK11195 binding to the receptor. The following applies: read-out: Ki against the binding of PK11195. As to the method:
Standard methods e.g., competition assays, are used to determine ge an inhibition, prevention or delay in binding of a ligand of a mitochondrial benzodiazepine receptor by a low molecular weight porphyrin derivative compound of the invention. As exemplified herein, labelled PK11195 compound is contacted with the receptor in the presence of different concentrations of a compound being tested and binding of the labelled PK11195 compound is determined. […] Preferably, the concentration of the compound being tested that inhibits binding of the ligand by 50% (i.e., […]) is determined.
FIG. 15 is a graphical representation showing the ability of the compounds {[{(Porphine-5,15-diyl)bis[cyclopropyl-diyl]}](2-)-N^21,N^22,N^23,N^24} manganese (III) acetate (EUK-418) and (5,10,15,20-Tetra ethylporphyrinato) manganese (III) acetate (EUK-425) to inhibit binding of tritiated PK11195 to the mitochondrial benzodiazepine receptor (mBzR). The Ki value for each compound is indicated.
FIG. 16 is a tabular representation showing a series of low molecular weight metalloporphyrin compounds designated EUK-418, EUK-423, EUK-424, EUK-425 and EUK-426, that inhibit ligand binding to the mitochondrial benzodiazepine receptor (mBzR) with moderate affinity, as determined by the Ki value (last column) for inhibition of tritiated PK11195, binding to the receptor. […]

Setting [9] is: FIG. 12, at up to about 5 μM concentration, toxicity blunts protection at high concentrations.
Setting [10] is: cuvette format, read-out: Cuvette IC50.
Where [11] appears, read: microplate format, read-out: Microplate IC50.

Chain of mitochondrial benzodiazepine receptor (mBzR) (P30536 whole entry, species assumed): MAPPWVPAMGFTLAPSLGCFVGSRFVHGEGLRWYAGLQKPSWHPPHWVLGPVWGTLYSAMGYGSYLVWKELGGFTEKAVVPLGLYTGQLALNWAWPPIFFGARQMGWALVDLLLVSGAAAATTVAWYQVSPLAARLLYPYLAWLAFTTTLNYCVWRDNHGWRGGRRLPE

The IC50 is the concentration that gives 50% inhibition. For `C1=Cc2nc1cc1ccc([n-]1)c(C1CCCCC1)c1nc(cc3ccc([n-]3)c2C2CCCCC2)C=C1.[Cl-].[Mn+3]` [EUK-452, {[{(Porphine-5,15-diyl)bis[cyclohexyl-diyl]}](2-)-N^21,N^22,N^23,N^24} manganese(III) chloride], the “concentration providing protection from the apoptotic effects of ionizing radiation” value in [1] (20 Gy) was found to be 3 µM. Further, the “Percentage remaining after 90 mins in SGF” value (“Percentage remaining” below) in series [2] is given as 98.2%. In the series with PC12 cells (setting [9]), the “effect on staurosporine-induced apoptosis of PC12 cells” value (from here on “effect … of PC12 cells”) is listed as “effectively reduce apoptosis”. Moreover, in [3] (setting [10]), the IC50 turned out to be 20.1 µM. Further, the half-inhibitory concentration (IC50) in [3] (setting [11]) is 9.05 µM. For the same compound, the “lipophilicity” value in series [4] (octanol partitioning) was “most lipophilic”. In series [4], the “Log10 P value” is reported as 1.973 ± 0.008 and the “P value (octanol partitioning coefficient)” value turned out to be 93.97 ± 1.67.
For `C1=Cc2nc1cc1ccc([n-]1)c(-c1ccccc1)c1nc(cc3ccc([n-]3)c2-c2ccccc2)C=C1.CC(=O)[O-].[Mn+3]` [EUK-423, {[{(Porphine-5,15-diyl)bis[benzyl-diyl]}](2-)-N^21,N^22,N^23,N^24} manganese(III) acetate], in series [1] (20 Gy), the “concentration providing protection from the apoptotic effects of ionizing radiation” value fell in the range of 3 to 10 µM. For the same compound, the “protection of cells exposed to ionizing radiation” value in series [1] (about 3-10 μM compound, 20 Gy, p<0.006) is listed as “approximately 87%”; in series [1] (low doses, FIG. 13 and FIG. 14) it was “protected”. In addition, the “Percentage remaining” value in [2] was 91.2%. Also, the “prevention of cytotoxicity induced by MPP+” value (“prevention” for short) in [5] was “prevent cytotoxicity”. The “effect … of PC12 cells” value in the series with PC12 cells (FIG. 11) and with PC12 cells (setting [9]) was “effectively reduce apoptosis” in each case. Also, the IC50 turned out to be 17.3 µM in series [3] (setting [10]) and 4.1 µM in series [3] (setting [11]). The “plasma time course” value in series [6] is reported as “increased in plasma during the first four hour period”. For the same compound, the “found in plasma / bioavailable after oral administration” value in series [6] (fasted and fed rats) is “bioavailable in vivo”. For the same compound, the “necrosis at the protective concentration” value in [7] (3 μM EUK-418, about 3-10 μM EUK-423) is reported as “no detectable necrosis”. Moreover, the “concentration causing significant increase in field number for control cells, indicating cytotoxicity” value in series [7] (control cells without ionizing radiation) was at least 30 µM. In addition, the “Log10 P value” in series [4] is 0.907 ± 0.002. Besides, the “P value (octanol partitioning coefficient)” value in series [4] is reported as 8.07 ± 0.10.
As for `CC(=O)O.CCOc1cccc(C=NCCN=Cc2cccc(OCC)c2O)c1O.[Mn]` [EUK-189, reference compound], the half-inhibitory concentration (IC50) in [3] (setting [10]) is 0.55 µM; in series [3] (setting [11]) it was 0.824 µM.
Consider `CCCc1c2nc(cc3ccc([n-]3)c(CCC)c3nc(cc4ccc1[n-]4)C=C3)C=C2.[Cl-].[Mn+3]` [EUK-453, {[{(Porphine-5,15-diyl)bis[propyl-diyl]}](2-)-N^21,N^22,N^23,N^24} manganese(III) chloride], for which, in series [2], the “Percentage remaining” value is on record as 98.4%. For the same compound, in the series on PC12 cells (setting [9]), the “effect … of PC12 cells” value is “effectively reduce apoptosis”. Also, the IC50 in [3] (setting [10]) was determined as 60.9 µM. The 50% inhibitory concentration (IC50) in series [3] (setting [11]) was 2.3 µM. Also, in series [4], the “Log10 P value” came to 0.619 ± 0.017 and the “P value (octanol partitioning coefficient)” value came to 4.16 ± 0.16.
The term EC50 denotes the concentration needed to bring the measured effect to its halfway point. By Ki is commonly meant the dissociation constant of the complex between target and ligand, obtained from inhibition or displacement. Consider `CC(=O)[O-].CCc1c2nc(c(CC)c3ccc([n-]3)c(CC)c3nc(c(CC)c4ccc1[n-]4)C=C3)C=C2.[Mn+3]` [EUK-425, (5,10,15,20-Tetraethylporphyrinato)manganese (III) acetate], for which, in series [2], the “Percentage remaining” value was 97.0%. For the same compound, in series [5] (LDH release, read-out: EC50 in MPP+ slice model), the EC50 was below 0.1 µM. Besides, the “prevention” value in [5] is on record as “prevent cytotoxicity”. Besides, in the series on PC12 cells (setting [9]), the “effect … of PC12 cells” value is recorded as “effectively reduce apoptosis”. In [3] (setting [10]), the half-maximal inhibitory concentration (IC50) came out at 32.5 µM. Also, the IC50 in [3] (setting [11]) stood at 0.439 µM. For the same compound, in [7] (range of 0.5 μM to 100 μM, data therefore expressed as field number), the “necrosis at the doses tested” value is on record as “necrosis was observed”. Moreover, in series [4], the “Log10 P value” is 0.932 ± 0.006 and the “P value (octanol partitioning coefficient)” value was 8.56 ± 0.35. Further, the Ki in series [8] was determined as 0.027 µM.
On to `CC(=O)[O-].COc1ccc(-c2c3nc(cc4ccc([n-]4)c(-c4ccc(OC)cc4)c4nc(cc5ccc2[n-]5)C=C4)C=C3)cc1.[Mn+3]` [EUK-450, {[{(Porphine-5,15-diyl)bis[benzene-1,4 diyl (4-methyl-oxy)]}](2-)-N^21,N^22,N^23,N^24} manganese(III) acetate], for which the “Percentage remaining” value in series [2] was 98.1%. Further, the “effect … of PC12 cells” value with PC12 cells (setting [9]) is listed as “effectively reduce apoptosis”. Further, the IC50 in [3] (setting [10]) amounted to 9.98 µM. Moreover, in [3] (setting [11]), the IC50 came out at 3.12 µM. For the same compound, in series [4], the “Log10 P value” was found to be 0.650 ± 0.010 and the “P value (octanol partitioning coefficient)” value was determined as 4.46 ± 0.11.
Take `CC(=O)[O-].CC(C)c1c2nc(c(C(C)C)c3ccc([n-]3)c(C(C)C)c3nc(c(C(C)C)c4ccc1[n-]4)C=C3)C=C2.[Mn+3]` [EUK-424, (5,10,15,20-Tetraisopropylporphyrinato)manganese (III) acetate]: in series [5], the “prevention” value is on record as “prevent cytotoxicity”.
